Results reported in PubChem BioAssay (NCI).
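All cell lines were grown in 96-well plates and treated with compound for 48 hours. Definition used: TGI = concentration required for complete inhibition of growth.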 Where a SMILES comes first, the peptide text is derived from it. The star is where a group is joined. Boc = CC(C)(C)OC(=O)*; OBn = c1ccc(CO*)cc1

Columns and labels:
Test in all cases: NCI tumour cell line growth inhibition, 48 h
[1] = tested on: DU-145 prostate
[2] = tested on: U251 CNS
[3] = tested on: ACHN renal
[4] = tested on: HCT-15 colon
[5] = tested on: NCI/ADR-RES ovarian
[6] = tested on: MDA-MB-435
[7] = tested on: SK-MEL-2 melanoma
[8] = tested on: CAKI-1 renal
[9] = tested on: OVCAR-4 ovarian
[10] = tested on: A498 renal

Compound	TGI [1] [µM]	TGI [2] [µM]	TGI [3] [µM]	TGI [4] [µM]	TGI [5] [µM]	TGI [6] [µM]	TGI [7] [µM]	TGI [8] [µM]	TGI [9] [µM]	TGI [10] [µM]
CC1(COS(=O)(=O)OCC2(C)COS(=O)(=O)OC2)COS(=O)(=O)OC1	> 88.6	> 100	> 74	> 100	> 100	> 78.4	> 100	> 100	> 100	97.2
Cc1c2c(OCCCCN3CCN(c4ncccn4)CC3)nn(C)c(=O)c2c(C)n1-c1ccccc1	35.8	32	31.3	32.7	46.2	40.5	34.6	35.3	39.1	30.6
C=CC[C@@]1(C(=O)OC)[C@H](Sc2ccccc2)C1(C)C	> 100	> 100	> 100	> 100	> 100	> 100	64.1	> 100	> 100	> 100
CC(C)(C)OC(=O)NC(Cc1ccccc1)C(=O)NC(Cc1ccccc1)C(=O)NCC(=O)OCc1ccccc1 (stereo not drawn) (Boc-Phe-Phe-Gly-OBn; configuration not given here)	33.2	36.3	> 100	64.7	> 100	> 100	> 100	> 100	> 100	> 100
C[C@]12CC[C@@H]3c4ccc(OC(=O)c5ccccc5)cc4CC[C@H]3[C@@H]1CC[C@@H]2Oc1c2ccccc2nc2ccccc12	20.3	15.4	> 50	31.5	> 50	12.9	> 50	21.6	> 50	> 50
c1ccc2c(c1)nc1n2CCSC1	> 100	> 100	> 100	> 100	> 100	> 100	> 100	> 100	> 100	> 100
CCOC(=O)C(CS)NC(=O)CCCCCCCC(=O)NC(CS)C(=O)OCC (stereo not given)	> 100	> 100	> 100	> 100	> 100	> 100	> 100	> 100	> 100	> 100
CC(C)N(C)C(=O)C12C3C4C1C1C2C3C41C#N (stereo not given)	> 100	> 100	> 100	> 100	> 100	> 100	> 100	> 100	> 100	> 100
